Results from patent US12569506B2, “Methods of treating osteonecrosis with LLP2A-bisphosphonate compounds” (The Regents of the University of California, priority 2016, dated 2026).
Entries after “also recorded” stand apart in the source; their conditions may differ.

Columns and labels:
[1] = system: dexamethasone-treated mice; assay: 30 and 45 day prevention study: trabecular bone histology of distal femur epiphyses; format: in vivo, BALB/c mice
Description: (§1) The efficacy of LLP2A-Ale and hPTH (1-34) was evaluated over a 30 and 45 day study using a mouse model of glucocorticoid-induced osteonecrosis. Seven week-old male BALB/c mice were randomized into Placebo group (fresh water), glucocorticoid only (4 mg/L dexamethasone (Dex) in drinking water), Dex+250 μg/kg LLP2A-Ale, Dex+500 μg/kg LLP2A-Ale, or Dex+40 μg/kg hPTH (administered five times a week) for 30 or 45 days. At day 30 or 45, the mice were sacrificed. Study endpoints included histological evidence of osteonecrosis, bone mass, and prevalent blood vessels (CD31 and Endomucin expression) in the distal femur, and was performed as set forth in Example 2. Non-parametric Kruskal-Wallis tests were used to determine the differences between the groups.

[2] = system: CD31 and Endomucin expression; assay: 30 and 45 day prevention study: blood vessels in the distal femur (CD31 and Endomucin expression); format: in vivo, BALB/c mice
Description: as §1

[3] = system: dexamethasone-treated mice; assay: 30 and 45 day prevention study: incidence of glucocorticoid-induced osteonecrosis; format: in vivo, BALB/c mice; conditions: for Incidence of glucocorticoid-induced osteonecrosis: Dex alone 4 mg/L in drinking water; for Prevalence/incidence of glucocorticoid-induced osteonecrosis lesions (in words): 30 or 45 days, Dex + LLP2A-Ale 250 or 500 μg/kg, or Dex + 40 μg/kg hPTH five times a week (FIG. 12)
Description: FIG. 12. Reduction in incidence of glucocorticoid-induced osteonecrosis in mice treated with recombinant LLP2A-Ale. Mice were randomized into placebo (PL) (fresh water), dexamethasone (Dex) 4 mg/l in drinking water, Dex+250 μg/kg LLP2A-Ale, Dex+500 μg/kg LLP2A-Ale, or Dex+40 μg/kg hPTH (1-34) groups for a 30 day treatment period or a 45 day treatment period. The incidence of Dex-induced osteonecrosis was 57% on day 30 and 73% on day 45.
as §1

[4] = Body weight, 90 day model; format: in vivo, BALB/c mice; conditions: all Dex treated animals vs placebo, day 7 up to day 90 (p<0.05)
Description: All the mice were euthanized at day 90. The body weights of all the study animals were assessed each week. If the study animals had 10% loss of body weight compared to the previous week, the dose of dexamethasone was reduced to 2 mg/L, until weight gain was observed. All of the animals were injected with calcein (30 mg/kg) and alizarin red (20 mg/kg) at 7 and 2 days before euthanization.

[5] = system: dexamethasone-treated mice; assay: Empty lacunae density in distal femoral epiphysis, 90 day model; format: in vivo, BALB/c mice; conditions: distal femoral epiphysis, day 90; Dex only vs LLP2A-Ale 250, 500, 750 μg/kg groups (FIG. 8A-B)
Description: FIG. 8A-8B. Empty lacunae density of femurs from in dexamethasone-treated mice. Mice treated with placebo (PL), dexamethasone alone (Dex), Dex+250 μg/kg LLP2A-Ale, Dex+500 μg/kg LLP2A-Ale, or Dex+750 μg/kg LLP2A-Ale as described above for FIG. 7 were assessed for empty lacunae density within the distal femoral epiphysis region. Empty lacunae density was calculated by determining the number of empty lacunae in the entire distal femoral epiphysis region divided by the total number of osteocytes within the same region for each specimen. In the Dex only group, 75% of the samples had 10% or more empty lacunae, as compared to 44-62% of the samples in LLP2A-Ale-treated groups. A higher number of LLP2A-Ale 250 μg/kg, LLP2A-Ale 500 μg/kg, and LLP2A-Ale 750 μg/kg—treated samples had less than 10% empty lacunae as compared to Dex only treatment.
Both the right and left distal femurs were fixed in 10% neutral buffered formalin and were shaken for 3 days, then decalcified in 5% EDTA until the bones were fully decalcified. The specimens were then processed in ascending concentrations of ethanol and embedded in paraffin. Tissue sections were cut into 5 microns sections, stained with hematoxylin and eosin and evaluated for the presence of osteonecrosis by bright field microscopy at 20× magnification. […] Osteonecrosis was detected using modified criteria reported by Yang el al., (a mouse model for glucocorticoid-induced osteonecrosis: Effect of a steroid holiday. J Orthop Res. 2009; 27:169-75) which defines osteonecrosis as requiring all of the following changes: (1) empty lacunae, (2) pyknotic osteocyte nuclei in areas of empty lacunae and necrosis of adjacent bone marrow, (3) presence of excessive fat cells in the bone marrow, (4) cartilage degradation and (5) presence of fibrin thrombi in the blood vessels. In addition, trabecular bone volume, adipose volume, sinusoid volume and osteoblast surface at the distal femoral epiphyses were measured. Empty lacunae density was calculated by empty lacunae/total osteocytes within the entire distal femoral epiphysis region for each sample. […]

[6] = system: dexamethasone-treated mice; assay: Histological evaluation (H&E) of femoral epiphyses, 90 day model; format: in vivo, BALB/c mice; conditions: Dex 4 mg/L in drinking water, day 90, femoral epiphyses (FIG. 9C-9F)
Description: FIG. 9A-9F. Histological evaluation of femurs from placebo- or dexamethasone-treated mice. Mice were treated with placebo (PL) or dexamethasone alone (Dex) as described above for FIG. 7. All mice were euthanized at day 90. Right and left distal femurs were fixed in 10% neutral buffer formalin and decalcified. The specimens were dehydrated, embedded in paraffin, cut into 5 micron sections and H&E stained. The sections were scored by two experienced histologists and then a consensus reading was performed by two additional histologists. FIG. 9A-9B: 4× (A) and 20× (B) magnifications of representative proximal femoral epiphyses in mice treated with placebo. (C) 4× magnification of a representative proximal femoral epiphyses in mice treated with dexamethasone (Dex) alone. FIGS. 9D, 9E, and 9F: 20× magnifications of representative proximal femoral epiphyses in mice treated with dexamethasone (Dex) alone.
FIG. 11A-11F. Histological evaluation of femurs from LLP2A-Ale-treated mice. Mice were treated with Dex+250 μg/kg LLP2A-Ale as described above for FIG. 7. All mice were euthanized at day 90. Right and left distal femurs were fixed in 10% neutral buffer formalin and decalcified. The specimens were dehydrated, embedded in paraffin, cut into 5 micron sections and H&E stained. The sections were scored by two experienced histologists and then a consensus reading was performed by two additional histologists. (A, D): 4× magnifications of representative proximal femoral epiphyses in mice treated with Dex+LLP2A-Ale. (B, C, E, F): 20× magnifications of representative proximal femoral epiphyses in mice treated with Dex+LLP2A-Ale.
Both the right and left distal femurs were fixed in 10% neutral buffered formalin and were shaken for 3 days, then decalcified in 5% EDTA until the bones were fully decalcified. The specimens were then processed in ascending concentrations of ethanol and embedded in paraffin. Tissue sections were cut into 5 microns sections, stained with hematoxylin and eosin and evaluated for the presence of osteonecrosis by bright field microscopy at 20× magnification. Experimental methods are also described in Mohan et al., Calif Tissue Int (2016) doi:10.1007/s00223-016-0195-6, which is incorporated herein by reference in its entirety for all purposes. Osteonecrosis was detected using modified criteria reported by Yang el al., (a mouse model for glucocorticoid-induced osteonecrosis: Effect of a steroid holiday. J Orthop Res. 2009; 27:169-75) which defines osteonecrosis as requiring all of the following changes: (1) empty lacunae, (2) pyknotic osteocyte nuclei in areas of empty lacunae and necrosis of adjacent bone marrow, (3) presence of excessive fat cells in the bone marrow, (4) cartilage degradation and (5) presence of fibrin thrombi in the blood vessels. In addition, trabecular bone volume, adipose volume, sinusoid volume and osteoblast surface at the distal femoral epiphyses were measured. Empty lacunae density was calculated by empty lacunae/total osteocytes within the entire distal femoral epiphysis region for each sample. Each section was scored by two experienced histologists, then a consensus reading was performed by two additional experienced histologists.

α4β1 integrin = α4β1 integrin (Homo sapiens, UniProt P05556+P13612); conditions: Liu 2006; Peng 2006; DeNardo 2009; cited from earlier work
Chain of α4β1 integrin (P13612 34-1032): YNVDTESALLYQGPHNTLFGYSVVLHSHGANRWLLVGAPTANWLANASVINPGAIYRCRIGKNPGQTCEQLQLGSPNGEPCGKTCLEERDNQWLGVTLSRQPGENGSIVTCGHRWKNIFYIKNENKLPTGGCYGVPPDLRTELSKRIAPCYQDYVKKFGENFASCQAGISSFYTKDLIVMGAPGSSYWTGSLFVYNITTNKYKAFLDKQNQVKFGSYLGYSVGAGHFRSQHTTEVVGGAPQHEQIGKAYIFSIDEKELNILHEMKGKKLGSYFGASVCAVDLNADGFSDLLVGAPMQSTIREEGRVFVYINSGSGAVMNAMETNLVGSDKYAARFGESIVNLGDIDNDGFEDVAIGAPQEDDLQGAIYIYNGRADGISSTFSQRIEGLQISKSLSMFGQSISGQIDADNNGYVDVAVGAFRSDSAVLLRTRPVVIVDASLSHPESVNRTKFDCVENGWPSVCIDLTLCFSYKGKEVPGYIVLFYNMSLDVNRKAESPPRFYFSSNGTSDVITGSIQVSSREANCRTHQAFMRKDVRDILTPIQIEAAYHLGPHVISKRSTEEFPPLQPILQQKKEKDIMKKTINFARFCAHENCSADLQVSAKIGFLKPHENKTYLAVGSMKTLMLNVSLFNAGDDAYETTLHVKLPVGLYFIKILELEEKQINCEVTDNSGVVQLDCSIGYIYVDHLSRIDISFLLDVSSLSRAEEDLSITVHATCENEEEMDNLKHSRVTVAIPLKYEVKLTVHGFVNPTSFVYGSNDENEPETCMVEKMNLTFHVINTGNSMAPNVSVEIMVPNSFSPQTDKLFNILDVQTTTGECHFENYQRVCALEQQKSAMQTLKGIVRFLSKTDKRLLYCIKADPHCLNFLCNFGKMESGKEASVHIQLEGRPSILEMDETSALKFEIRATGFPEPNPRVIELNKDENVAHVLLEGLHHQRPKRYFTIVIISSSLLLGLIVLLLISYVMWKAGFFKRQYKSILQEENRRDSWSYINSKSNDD
Chain of α4β1 integrin (P05556 21-798): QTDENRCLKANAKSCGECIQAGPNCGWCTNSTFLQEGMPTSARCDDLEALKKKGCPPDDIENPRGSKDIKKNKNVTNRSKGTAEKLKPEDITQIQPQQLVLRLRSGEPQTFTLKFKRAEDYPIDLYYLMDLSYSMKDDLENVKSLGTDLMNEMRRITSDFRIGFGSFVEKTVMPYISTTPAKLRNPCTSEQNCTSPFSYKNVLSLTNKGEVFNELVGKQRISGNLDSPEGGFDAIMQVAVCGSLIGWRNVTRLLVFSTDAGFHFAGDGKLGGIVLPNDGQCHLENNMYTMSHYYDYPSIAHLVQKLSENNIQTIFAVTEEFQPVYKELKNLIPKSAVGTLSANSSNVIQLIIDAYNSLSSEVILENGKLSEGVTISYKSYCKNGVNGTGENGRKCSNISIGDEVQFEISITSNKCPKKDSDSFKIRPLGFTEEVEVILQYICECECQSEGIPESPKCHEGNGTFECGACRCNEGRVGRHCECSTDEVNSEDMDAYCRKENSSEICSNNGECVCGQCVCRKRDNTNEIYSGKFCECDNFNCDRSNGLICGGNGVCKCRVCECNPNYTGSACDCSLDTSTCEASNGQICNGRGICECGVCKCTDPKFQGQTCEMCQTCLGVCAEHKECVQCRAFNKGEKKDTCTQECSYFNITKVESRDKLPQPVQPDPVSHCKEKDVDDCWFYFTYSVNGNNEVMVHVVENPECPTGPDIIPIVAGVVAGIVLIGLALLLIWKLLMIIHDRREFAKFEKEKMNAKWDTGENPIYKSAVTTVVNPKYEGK

[7] = system: glucocorticoid-treated mice; assay: 56 day mouse model of glucocorticoid-induced osteonecrosis: femur blood vessel / vascular density by microCT; format: in vivo
Description: FIG. 2. Blood vessel density of femurs from glucocorticoid-treated mice. 4 month old male mice were treated glucocorticoid (“GC”) or placebo for 56 days. At day 28 a group of glucocorticoid-treated mice were treated with LLP2A-Ale or PTH for an additional 28 days.
FIG. 3. Vascular density of femurs from glucocorticoid-treated mice. 4 month old male mice were treated with glucocorticoid or placebo for 56 days. At day 28 a group of glucocorticoid-treated mice were treated with LLP2A-Ale or PTH for an additional 28 days. At day 56 animals were given a contrast agent and then sacrificed and then the animals femurs were decalcified and then scanned by microCT.
The efficacy of LLP2A-Ale was evaluated using a mouse model of glucocorticoid-induced osteonecrosis. 4-month-old male mice were treated for 56 days with glucocorticoids. At day 28, a group of mice was treated with either LLP2A-Ale or PTH for an additional 28 days. Blood vessel density of the femur was measured after sacrifice by microCT according to published methods. […] Vascular density of the femurs of glucocorticoid-treated mice subsequently treated with LLP2A-Ale or PTH was also assessed by giving the mice a contrast agent, then sacrificing the mice, decalcifying the femurs, and scanning the femurs by microCT. […] Without being bound to a particular theory, it is believed that LLP2A-Ale promotes increased vascularity by bringing MSCs to the bone that is turning over with osteonecrosis, which stimulates new blood vessel formation, which in turn is needed to stimulate new bone formation in the osteonecrotic bone.

[8] = system: glucocorticoid-treated mice; assay: Trabecular bone volume in glucocorticoid-treated mice; format: in vivo; conditions: GC 28 days then treatment; change from day 28 to 56, measured in vivo (FIG. 6 left)
Description: FIG. 6. Trabecular bone volume in glucocorticoid-treated mice. Mice were treated for 28 days with glucocorticoid (GC), then treated with either LLP2A-Ale, PTH, or LLP2A-Ale+PTH. The outcome measure was the change in trabecular bone mass from day 28 to 56, measured in vivo at the distal femur (left panel) and change in trabecular bone mass for the vertebral trabecular bone volume (right panel).
Changes in trabecular bone mass during the treatment period for the distal femur and vertebral trabecular bone volume were measured.

## C[C@@H]1C[C@H]2[C@@H]3CCC4=CC(=O)C=C[C@]4(C)[C@@]3(F)[C@@H](O)C[C@]2(C)[C@@]1(O)C(=O)CO [Dex, dexamethasone]
[1]; Dex vs placebo, day 30 and 45 (p<0.05)
  Trabecular thickness: significantly reduced
[1]; Dex, day 45 (p<0.05)
  Trabecular number: significantly reduced
[2]; Dex vs LLP2A-Ale, hPTH (1-34) or placebo, day 30 and 45 (data not shown)
  Staining intensity of CD31 and Endomucin expression: decreased the staining intensity
[3]; day 30
  Incidence of glucocorticoid-induced osteonecrosis: 57%
[3]; day 45
  Incidence of glucocorticoid-induced osteonecrosis: 73%
[4]
  Body weight: significantly lower
[5]
  Samples with 10% or more empty lacunae: 75%
[6]
  Histological findings of osteonecrosis with dexamethasone alone: Evidence of osteonecrosis was present throughout the epiphyses of the distal femurs; also recorded: necrotic trabeculae characterized by large empty lacunae
[6]; listed as dexamethasone
  Histological findings of osteonecrosis with dexamethasone alone: most of the bone marrow space was occupied by fat

## Cc1ccccc1NC(=O)Nc1ccc(CC(=O)N[C@@H](CCCCNC(=O)/C=C/c2cccnc2)C(=O)N[C@@H](CCCC(=O)O)C(=O)NC2(C(N)=O)CCCCC2)cc1 [LLP2A]
α4β1 integrin
  Binding to α4β1 integrin (affinity and specificity in words): high-affinity, high-specificity

## hPTH (1-34): human PTH (1-34), 40 μg/kg five times a week in Example 3 (SVSEIQLMHNLGKHLNSMERVEWLRKKLQDVHNF; Parathyroid hormone; UniProt P01270 32-65, looked up, fragment)
[1]; day 30 and 45, Dex vs placebo, treated vs Dex (p<0.05)
  Trabecular bone volume: higher bone volume
[1]; vs Dex group, day 30 and 45 (p<0.05)
  Trabecular separation: lower trabecular separation
[2]; 30 and 45 day study, conclusion
  Vascular integrity of the distal femur: maintained the vascular integrity
[3]
  Prevalence/incidence of glucocorticoid-induced osteonecrosis lesions (in words): prevented incident GC-induced osteonecrosis lesions; also recorded: prevented glucocorticoid-induced osteonecrotic lesions
[3]; listed as hPTH
  Prevalence/incidence of glucocorticoid-induced osteonecrosis lesions (in words): reduced the incidence and severity of osteonecrosis

B1: PTH: parathyroid hormone, anabolic agent; given 20 ug/kg 5× a week in Example 1 (peptide, UniProt P01270 32-115, looked up)
Parathyroid hormone: SVSEIQLMHNLGKHLNSMERVEWLRKKLQDVHNFVALGAPLAPRDAGSQRPRKKEDNVLVESHEKSLGEADKADVNVLTKAKSQ
modifications: Parathyroid hormone
[7]; 4 month old male mice, GC 56 days, LLP2A-Ale or PTH from day 28 for 28 days, microCT after sacrifice (FIG. 2)
  Blood vessel density of the femur: significantly different from all other groups
[7]; contrast agent at day 56, decalcified femurs scanned by microCT (FIG. 3), vs GC alone
  Vascular density of femurs: did not exhibit a significant change in vascular density; also recorded: did not significantly change vascular density
[8]
  Change in trabecular bone mass/volume at the distal femur: increased the trabecular bone volume to the baseline/sham level
